Measurements published in US11214594B2, “Antimicrobial peptide having synergistic antibacterial effect with antibiotics on multidrug resistant bacteria, and use thereof” (priority 2016, dated 2022).
≈ marks a conversion by molar mass, not a printed value. Read-outs that look alike come from different tables or passages of the source. Where a SMILES comes first, the peptide text is derived from it.

Key:
[1] = system: E. coli; type: cell-based, Escherichia coli; conditions: E. coli
Protocol: (§1) Specifically, the strains described in [Table 2] were prepared and diluted with an MH medium such that the number of bacteria was 2×10^6 colony-forming units (CFUs) per 1 ml, 100 μl of the diluted strains was each aliquoted into a 96-well microtiter plate, and then 50 μl of a peptide solution diluted with the MH medium from the MIC value (solution diluted stepwise at 2: 1) was added to each well. Thereafter, the MIC value of each mixed solution was determined by diluting the antibiotic solution with the MH medium, adding 50 μl of the diluted solution to each well, and performing an experiment even under a reversed condition.

[2] = system: MDREC 1229; type: cell-based, Escherichia coli
Protocol: as §1

[3] = system: S. aureus; experiment: microbe, parasite or virus in culture; type: cell-based, Staphylococcus aureus
Protocol: (§2) For the antibacterial activity, a minimal inhibitory concentration (MIC) of a peptide in which fungus bodies were not split in an MH medium with sufficient nutrients was measured.
(§3) Specifically, the strains described in the following [Table 2] were purchased and diluted with an MH medium such that the number of bacteria was 2×10^6 colony-forming units (CFUs), 100 μl of each of the diluted strains was aliquoted into a 96-well microtiter plate, and then 100 μl of a peptide solution diluted with the MH medium (solution diluted stepwise at 2: 1) was added to each well.

[4] = system: A. baumannii; experiment: MIC of antibiotic during combined treatment with antimicrobial peptide; type: cell-based, Acinetobacter baumannii; conditions: for Antibiotic MIC, Erythromycin / Antibiotic MIC, Linezolid / Antibiotic MIC, Vancomycin: A. baumannii
Protocol: (§4) Thereafter, the MIC value of each mixed solution was determined by diluting the antibiotic solution with the MH medium, adding 50 μl of the diluted solution to each well, and performing an experiment even under a reversed condition.

[5] = system: MDREC 1229; experiment: as above; type: cell-based, Escherichia coli
Protocol: as §1

[6] = system: E. coli; experiment: microbe, parasite or virus in culture; type: cell-based, Escherichia coli; conditions: 16 h
Protocol: as §2, §3

[7] = system: MDREC 1229; experiment: microbe, parasite or virus in culture; type: cell-based, Escherichia coli
Protocol: as §2, §3

[8] = system: MDRST 8007; experiment: Minimal inhibitory concentration (MIC), single agent; type: cell-based, Salmonella typhimurium; conditions: agent alone
Protocol: as §2, §3

[9] = system: E. coli; experiment: MIC of antibiotic during combined treatment with antimicrobial peptide; type: cell-based, Escherichia coli; conditions: for Antibiotic MIC, Erythromycin / Antibiotic MIC, Linezolid / Antibiotic MIC, Vancomycin: E. coli
Protocol: as §4

[10] = system: B. subtilis; experiment: microbe, parasite or virus in culture; type: cell-based, Bacillus subtilis
Protocol: as §2, §3

[11] = system: MDRAB 12035; experiment: MIC of antimicrobial peptide during combined treatment with antibiotic; type: cell-based, Acinetobacter baumannii
Protocol: as §1

[12] = system: MDRAB 12036; type: cell-based, Acinetobacter baumannii
Protocol: as §2, §3

[13] = linezolid 64 μg/ml (Conc./MIC 1/8)
[14] = linezolid 512 μg/ml (Conc./MIC 1)
[15] = vancomycin 512 μg/ml (Conc./MIC 1/2)
[16] = vancomycin 1024 μg/ml (Conc./MIC 1)
[17] = combined with peptide at 1 μg/ml
[18] = combined with peptide at 2 μg/ml
[19] = combined with peptide at 4 μg/ml
[20] = combined with peptide at 6 μg/ml
[21] = combined with peptide at 8 μg/ml
[22] = combined with peptide at 16 μg/ml
[23] = combined with peptide at 32 μg/ml
[24] = combined with peptide at 64 μg/ml
[25] = peptide treatment concentration 1 μg/ml
[26] = peptide treatment concentration 2 μg/ml
[27] = peptide treatment concentration 4 μg/ml
[28] = peptide treatment concentration 6 μg/ml
[29] = peptide treatment concentration 8 μg/ml
[30] = peptide treatment concentration 16 μg/ml
[31] = peptide treatment concentration 32 μg/ml
[32] = peptide treatment concentration 64 μg/ml

Which results are given for `CC[C@H](C)[C@H](NC(=O)[C@H](CCCCN)NC(=O)[C@H](Cc1c[nH]c2ccccc12)NC(=O)[C@@H](N)CCCNC(=N)N)C(=O)N[C@@H](Cc1ccccc1)C(=O)N[C@@H](CCCCN)C(=O)N[C@@H](CCCCN)C(=O)N[C@H](C(=O)N1CCC[C@H]1C(=O)N[C@@H](CCCCN)C(=O)N[C@@H](CC(C)C)C(=O)N[C@@H](CC(C)C)C(=O)N[C@@H](Cc1c[nH]cn1)C(=O)N[C@@H](CCC(=O)O)C(=O)N[C@@H](Cc1ccccc1)C(=O)N[C@@H](CCCCN)C(=O)N[C@@H](CCCCN)C(=O)N[C@@H](Cc1ccccc1)C(N)=O)[C@@H](C)CC` [PapMA-12, RWK IFK KIP KLL HEF KKF-NH2] (H-RWKIFKKIPKLLHEFKKF-NH2; N-terminus assumed)?
Peptide MIC ([1]; with Erythromycin […] (Conc./MIC 1)): 0 µg/mL; Peptide MIC ([1]; with Linezolid […] (Conc./MIC 1)): 0 µg/mL; Peptide MIC ([1]; with Vancomycin 1024 μg/ml (Conc./MIC 1)): 0 µg/mL; Peptide MIC during treatment with antibiotic ([2]; erythromycin 32 μg/ml (Conc./MIC 1/8)): 2 µg/mL; Peptide MIC during treatment with antibiotic ([2]; erythromycin 64 μg/ml (Conc./MIC 1/4)): 2 µg/mL; Peptide MIC during treatment with antibiotic ([2]; erythromycin […] (Conc./MIC 1)): 0 µg/mL; Peptide MIC during treatment with antibiotic ([2]; erythromycin […] (Conc./MIC 1/2)): 1 µg/mL; Peptide MIC during treatment with antibiotic [2, 13]: 4 µg/mL; Peptide MIC during treatment with antibiotic [2, 14]: 0 µg/mL; Peptide MIC during treatment with antibiotic ([2]; linezolid […] (Conc./MIC 1/2)): 1 µg/mL; Peptide MIC during treatment with antibiotic ([2]; linezolid […] (Conc./MIC 1/4)): 2 µg/mL; Peptide MIC during treatment with antibiotic [2, 15]: 2 µg/mL; Peptide MIC during treatment with antibiotic [2, 16]: 1 µg/mL; Peptide MIC during treatment with antibiotic ([2]; vancomycin […] (Conc./MIC 1/4)): 4 µg/mL; Peptide MIC during treatment with antibiotic ([2]; vancomycin […] (Conc./MIC 1/8)): 4 µg/mL; Minimal inhibitory concentration MIC [3]: >128 µg/mL; Synergistic effect of antibacterial activity with existing antibiotics compared with PapMA-1 ([4]; A. baumannii and MDRAB 12035): higher level than the PapMA-1 peptide; Antibiotic MIC, Erythromycin [4, 17]: 16 µg/mL; Antibiotic MIC, Linezolid [4, 17]: 128 µg/mL; Antibiotic MIC, Vancomycin [4, 17]: >128 µg/mL; Antibiotic MIC, Erythromycin [4, 18]: 8 µg/mL; Antibiotic MIC, Linezolid [4, 18]: 32 µg/mL; Antibiotic MIC, Vancomycin [4, 18]: 64 µg/mL; Antibiotic MIC, Erythromycin [4, 19]: 1 µg/mL; Antibiotic MIC, Linezolid [4, 19]: 4 µg/mL; Antibiotic MIC, Vancomycin [4, 19]: 8 µg/mL; Antibiotic MIC, Erythromycin [4, 20]: 0.25 µg/mL; Antibiotic MIC, Linezolid [4, 20]: 1 µg/mL; Antibiotic MIC, Vancomycin [4, 20]: 2 µg/mL; Antibiotic MIC, Erythromycin [4, 21]: 0 µg/mL; Antibiotic MIC, Linezolid [4, 21]: 0 µg/mL; Antibiotic MIC, Vancomycin [4, 21]: 0 µg/mL; Antibiotic MIC, Erythromycin [4, 22]: 0 µg/mL; Antibiotic MIC, Linezolid [4, 22]: 0 µg/mL; Antibiotic MIC, Vancomycin [4, 22]: 0 µg/mL; Antibiotic MIC, Erythromycin [4, 23]: 0 µg/mL; Antibiotic MIC, Linezolid [4, 23]: 0 µg/mL; Antibiotic MIC, Vancomycin [4, 23]: 0 µg/mL; Antibiotic MIC, Erythromycin [4, 24]: 0 µg/mL; Antibiotic MIC, Linezolid [4, 24]: 0 µg/mL; Antibiotic MIC, Vancomycin [4, 24]: 0 µg/mL; Antibiotic MIC, Erythromycin [5, 25]: 128 µg/mL; Antibiotic MIC, Linezolid [5, 25]: >128 µg/mL; Antibiotic MIC, Vancomycin [5, 25]: >128 µg/mL; Antibiotic MIC, Erythromycin [5, 26]: 32 µg/mL; Antibiotic MIC, Linezolid [5, 26]: 128 µg/mL; Antibiotic MIC, Vancomycin [5, 26]: >128 µg/mL; Antibiotic MIC, Erythromycin [5, 27]: 8 µg/mL; Antibiotic MIC, Linezolid [5, 27]: 32 µg/mL; Antibiotic MIC, Vancomycin [5, 27]: 128 µg/mL; Antibiotic MIC, Erythromycin [5, 28]: 4 µg/mL; Antibiotic MIC, Linezolid [5, 28]: 16 µg/mL; Antibiotic MIC, Vancomycin [5, 28]: 32 µg/mL; Antibiotic MIC, Erythromycin [5, 29]: 1 µg/mL; Antibiotic MIC, Linezolid [5, 29]: 16 µg/mL; Antibiotic MIC, Vancomycin [5, 29]: 8 µg/mL; Antibiotic MIC, Erythromycin [5, 30]: 0 µg/mL; Antibiotic MIC, Linezolid [5, 30]: 0 µg/mL; Antibiotic MIC, Vancomycin [5, 30]: 0 µg/mL; Antibiotic MIC, Erythromycin [5, 31]: 0 µg/mL; Antibiotic MIC, Linezolid [5, 31]: 0 µg/mL; Antibiotic MIC, Vancomycin [5, 31]: 0 µg/mL; Antibiotic MIC, Erythromycin [5, 32]: 0 µg/mL; Antibiotic MIC, Linezolid [5, 32]: 0 µg/mL; Antibiotic MIC, Vancomycin [5, 32]: 0 µg/mL; Minimal inhibitory concentration MIC [6]: 8 µg/mL (≈ 3.35 µM); Minimal inhibitory concentration MIC [7]: 16 µg/mL (≈ 6.71 µM); Peptide MIC, peptide alone [7]: 16 µg/mL; Minimal inhibitory concentration MIC [8]: 16 µg/mL (≈ 6.71 µM); Synergistic effect of antibacterial activity with existing antibiotics compared with PapMA-1 ([9]; E. coli and MDREC1229): higher level than the PapMA-1 peptide; Antibiotic MIC, Erythromycin ([9]; erythromycin combined with peptide at 1 μg/ml): 64 µg/mL; Antibiotic MIC, Erythromycin ([9]; erythromycin combined with peptide at 2 μg/ml): 32 µg/mL; Antibiotic MIC, Erythromycin ([9]; erythromycin combined with peptide at 4 μg/ml): 2 µg/mL; Antibiotic MIC, Erythromycin ([9]; erythromycin combined with peptide at 6 μg/ml): 1 µg/mL; Antibiotic MIC, Erythromycin ([9]; erythromycin combined with peptide at 8 μg/ml): 0 µg/mL; Antibiotic MIC, Erythromycin ([9]; erythromycin combined with peptide at 16 μg/ml): 0 µg/mL; Antibiotic MIC, Erythromycin ([9]; erythromycin combined with peptide at 32 μg/ml): 0 µg/mL; Antibiotic MIC, Erythromycin ([9]; erythromycin combined with peptide at 64 μg/ml): 0 µg/mL; Antibiotic MIC, Linezolid ([9]; linezolid combined with peptide at 1 μg/ml): >128 µg/mL; Antibiotic MIC, Linezolid ([9]; linezolid combined with peptide at 2 μg/ml): 128 µg/mL; Antibiotic MIC, Linezolid ([9]; linezolid combined with peptide at 4 μg/ml): 8 µg/mL; Antibiotic MIC, Linezolid ([9]; linezolid combined with peptide at 6 μg/ml): 2 µg/mL; Antibiotic MIC, Linezolid ([9]; linezolid combined with peptide at 8 μg/ml): 0 µg/mL; Antibiotic MIC, Linezolid ([9]; linezolid combined with peptide at 16 μg/ml): 0 µg/mL; Antibiotic MIC, Linezolid ([9]; linezolid combined with peptide at 32 μg/ml): 0 µg/mL; Antibiotic MIC, Linezolid ([9]; linezolid combined with peptide at 64 μg/ml): 0 µg/mL; Antibiotic MIC, Vancomycin ([9]; vancomycin combined with peptide at 1 μg/ml): >128 µg/mL; Antibiotic MIC, Vancomycin ([9]; vancomycin combined with peptide at 2 μg/ml): 128 µg/mL; Antibiotic MIC, Vancomycin ([9]; vancomycin combined with peptide at 4 μg/ml): 16 µg/mL; Antibiotic MIC, Vancomycin ([9]; vancomycin combined with peptide at 6 μg/ml): 8 µg/mL; Antibiotic MIC, Vancomycin ([9]; vancomycin combined with peptide at 8 μg/ml): 0 µg/mL; Antibiotic MIC, Vancomycin ([9]; vancomycin combined with peptide at 16 μg/ml): 0 µg/mL; Antibiotic MIC, Vancomycin ([9]; vancomycin combined with peptide at 32 μg/ml): 0 µg/mL; Antibiotic MIC, Vancomycin ([9]; vancomycin combined with peptide at 64 μg/ml): 0 µg/mL; Minimal inhibitory concentration MIC [10]: >128 µg/mL; Peptide MIC during treatment with erythromycin ([11]; erythromycin 4 μg/ml (Conc./MIC 1/8)): 4 µg/mL; Peptide MIC during treatment with erythromycin ([11]; erythromycin 8 μg/ml (Conc./MIC 1/4)): 2 µg/mL; Peptide MIC during treatment with erythromycin ([11]; erythromycin 16 μg/ml (Conc./MIC 1/2)): 1 µg/mL; Peptide MIC during treatment with erythromycin ([11]; erythromycin 32 μg/ml (Conc./MIC 1)): 0 µg/mL; Peptide MIC during treatment with linezolid [11, 13]: 2 µg/mL; Peptide MIC during treatment with linezolid [11, 14]: 0 µg/mL; Peptide MIC during treatment with linezolid ([11]; linezolid […] (Conc./MIC 1/2)): 1 µg/mL; Peptide MIC during treatment with linezolid ([11]; linezolid […] (Conc./MIC 1/4)): 1 µg/mL; Peptide MIC during treatment with vancomycin [11, 15]: 2 µg/mL; Peptide MIC during treatment with vancomycin [11, 16]: 1 µg/mL; Peptide MIC during treatment with vancomycin ([11]; vancomycin […] (Conc./MIC 1/4)): 2 µg/mL; Peptide MIC during treatment with vancomycin ([11]; vancomycin […] (Conc./MIC 1/8)): 2 µg/mL; Minimal inhibitory concentration MIC [12]: 16 µg/mL (≈ 6.71 µM)
